This note sets out measurements from ChEMBL document CHEMBL3045479, “Synthesis and anti-cancer activity of some novel C-17 analogs of ursolic and oleanolic acids” (2013).

Where a name gives a salt, the structure may show the parent alone.

Assay type in all cases: functional
The subject of one assay is THP-1. Kind of assay: Growth inhibition of Homo sapiens (human) THP1 cells at 10 uM after 48 hr by SRB assay. Particulars: THP-1, 48 h, read-out: GI.
The test system of another assay is COLO 205. The experiment in a line: Growth inhibition of Homo sapiens (human) COLO205 cells at 10 uM after 48 hr by SRB assay. Particulars: COLO 205, 48 h, read-out: GI.
The test system of a further assay is PC-3. The experiment in a line: Growth inhibition of Homo sapiens (human) PC3 cells at 10 uM after 48 hr by SRB assay. Particulars: PC-3, 48 h, read-out: GI. Background: In SRB staining, fixed cells bind dye roughly in proportion to their protein.
A further assay has as its system A549. The experiment in a line: Growth inhibition of Homo sapiens (human) A549 cells at 10 uM after 48 hr by SRB assay. Particulars: A549, 48 h, read-out: GI.
A further assay concerns IMR-32. The experiment in a line: Growth inhibition of Homo sapiens (human) IMR32 cells at 10 uM after 48 hr by SRB assay. The following applies: IMR-32, 48 h, read-out: GI.
The next assay concerns SiHa. Kind of assay: Growth inhibition of Homo sapiens (human) SiHa cells at 10 uM after 48 hr by SRB assay. Particulars: read-out: GI.
The next assay deals with HeLa. Kind of assay: Growth inhibition of Homo sapiens (human) HeLa cells at 10 uM after 48 hr by SRB assay. The following applies: read-out: GI.
A further assay relates to SW-620. The experiment in a line: Growth inhibition of Homo sapiens (human) SW620 cells at 10 uM after 48 hr by SRB assay. Particulars: SW-620, 48 h, read-out: GI.

On to `C[C@H]1[C@H](C)CC[C@]2(C(=O)OCCCCCCCCCBr)CC[C@]3(C)C(=CC[C@@H]4[C@@]5(C)CC[C@H](O)C(C)(C)[C@@H]5CC[C@]43C)[C@H]12` [BROMONONYL-3BETA-HYDROXY-URS-12-EN-28-OATE], for which the inhibition of growth at 10 µM with THP-1 is 0%; in the assay on COLO 205 it was 3%; with PC-3, 9%; in the assay on A549 it was 0%.
With `C#CCOC(=O)[C@]12CCC(C)(C)C[C@H]1C1=CC[C@@H]3[C@@]4(C)CC[C@H](O)C(C)(C)[C@@H]4CC[C@@]3(C)[C@]1(C)CC2` [3BETA-HYDROXY-OLEN-12-EN-28-PROPARGYLATE], the inhibition of growth at 10 µM came to 16% with IMR-32; 30% in the assay with SiHa; 27% in the assay on HeLa; 15% in the assay with COLO 205; 20% in the assay on A549; 2% with SW-620.
On to `C[C@H]1[C@H](C)CC[C@]2(C(=O)OCCCCBr)CC[C@]3(C)C(=CC[C@@H]4[C@@]5(C)CC[C@H](O)C(C)(C)[C@@H]5CC[C@]43C)[C@H]12` [BROMOBUTYL-3BETA-HYDROXY-URS-12-EN-28-OATE], for which the inhibition of growth at 10 µM turned out to be 7% with THP-1, 10% with COLO 205, 23% with PC-3 and 2% in the assay on A549.
`C[C@H]1[C@H](C)CC[C@]2(C(=O)OCCCCCCCCCCCCBr)CC[C@]3(C)C(=CC[C@@H]4[C@@]5(C)CC[C@H](O)C(C)(C)[C@@H]5CC[C@]43C)[C@H]12` [BROMODODECYL-3BETA-HYDROXY-URS-12-EN-28-OATE]: the inhibition of growth at 10 µM in the assay with THP-1, in the assay with COLO 205, in the assay with PC-3 and with A549 was 0% in each case.
As for `COc1cccc2c1C(=O)c1c(O)c3c(c(O)c1C2=O)C[C@@](O)(C(=O)CO)C[C@@H]3O[C@H]1C[C@H](N)[C@H](O)[C@H](C)O1` [DOXORUBICIN HYDROCHLORIDE], the inhibition of growth at 10 µM stood at 82% with IMR-32; 58% with HeLa; 89% in the assay on COLO 205; 50% with A549; 38% in the assay on SW-620.
`COC(=O)COC(=O)[C@]12CCC(C)(C)C[C@H]1C1=CC[C@@H]3[C@@]4(C)CC[C@H](O)C(C)(C)[C@@H]4CC[C@@]3(C)[C@]1(C)CC2` [3BETA-HYDROXY-OLEAN-12-EN-28-METHYL ACETOACETATE]: the inhibition of growth at 10 µM in the assay with IMR-32 was 18%; with SiHa, 19%; with HeLa, 13%; in the assay on COLO 205 it was 2%; with A549, 25%; in the assay on SW-620, 4%.
For the compound `COC(=O)[C@]12CCC(C)(C)C[C@H]1C1=CC[C@@H]3[C@@]4(C)CC[C@H](O)C(C)(C)[C@@H]4CC[C@@]3(C)[C@]1(C)CC2` [METHYL OLEANOLATE], the inhibition of growth at 10 µM in the assay with IMR-32 was determined as 55%; in the assay on SiHa, 21%; in the assay with HeLa it was 18%; with COLO 205, 0%; with A549 it was 48%; in the assay with SW-620, 8%.
`O=c1[nH]cc(F)c(=O)[nH]1` [FLUOROURACIL]: the inhibition of growth at 10 µM with IMR-32 is 29%; in the assay with THP-1 it was 69%; in the assay on SiHa, 38%; in the assay on HeLa it was 36%; with COLO 205, 47%; in the assay with A549 it was 30%. The inhibition of growth at 10 µM with SW-620 is 42%.
In the case of `C[C@H]1[C@H](C)CC[C@]2(C(=O)OCCBr)CC[C@]3(C)C(=CC[C@@H]4[C@@]5(C)CC[C@H](O)C(C)(C)[C@@H]5CC[C@]43C)[C@H]12`, the inhibition of growth at 10 µM came out at 54% with THP-1, 12% in the assay on COLO 205, 23% with PC-3 and 28% in the assay with A549.
Take `CO[C@@]12[C@H](COC(N)=O)C3=C(C(=O)C(C)=C(N)C3=O)N1C[C@@H]1N[C@@H]12` [MITOMYCIN]: the inhibition of growth at 10 µM with PC-3 was found to be 61%.
`C[C@H]1[C@H](C)CC[C@]2(C(=O)OCCCCCBr)CC[C@]3(C)C(=CC[C@@H]4[C@@]5(C)CC[C@H](O)C(C)(C)[C@@H]5CC[C@]43C)[C@H]12` [BROMOPENTYL-3BETA-HYDROXY-URS-12-EN-28-OATE]: the inhibition of growth at 10 µM came out at 10% in the assay with THP-1, 1% in the assay with COLO 205, 6% in the assay with PC-3 and 7% in the assay on A549.
Turning to `C[C@H]1[C@H](C)CC[C@]2(C(=O)OCCCCCCCCBr)CC[C@]3(C)C(=CC[C@@H]4[C@@]5(C)CC[C@H](O)C(C)(C)[C@@H]5CC[C@]43C)[C@H]12` [BROMOOCTYL-3BETA-HYDROXY-URS-12-EN-28-OATE], the inhibition of growth at 10 µM in the assay on THP-1 came to 4%; in the assay on COLO 205, 0%; with PC-3, 1%; in the assay on A549, 0%.
Consider `C#CCOC(=O)[C@]12CC[C@@H](C)[C@H](C)[C@H]1C1=CC[C@@H]3[C@@]4(C)CC[C@H](O)C(C)(C)[C@@H]4CC[C@@]3(C)[C@]1(C)CC2` [3BETA-HYDROXY-URS-12-EN-28-PROPARGYLATE], for which the inhibition of growth at 10 µM worked out at 11% with IMR-32; 4% with SiHa; 0% in the assay on HeLa; 0% with COLO 205; 24% in the assay with A549; 0% with SW-620.
For `CC(=O)O[C@H]1C(=O)[C@@]2(C)[C@H]([C@H](OC(=O)c3ccccc3)[C@]3(O)C[C@H](OC(=O)[C@H](O)[C@@H](NC(=O)c4ccccc4)c4ccccc4)C(C)=C1C3(C)C)[C@]1(OC(C)=O)CO[C@@H]1C[C@@H]2O` [PACLITAXEL], the inhibition of growth at 10 µM is 30% in the assay on IMR-32; 45% in the assay with HeLa; 67% with COLO 205; 44% in the assay with A549; 36% in the assay on SW-620.
`COC(=O)[C@]12CC[C@@H](C)[C@H](C)[C@H]1C1=CC[C@@H]3[C@@]4(C)CC[C@H](O)C(C)(C)[C@@H]4CC[C@@]3(C)[C@]1(C)CC2` [METHYL URSOLATE]: the inhibition of growth at 10 µM in the assay with IMR-32 is 11%; in the assay on SiHa it was 21%; with HeLa, 2%; in the assay on COLO 205 it was 0%; in the assay with A549 it was 20%; in the assay on SW-620, 0%.
With `CC(C)=CCOC(=O)[C@]12CCC(C)(C)C[C@H]1C1=CC[C@@H]3[C@@]4(C)CC[C@H](O)C(C)(C)[C@@H]4CC[C@@]3(C)[C@]1(C)CC2` [3BETA-HYDROXY-OLEAN-12-EN-28-PRENYLATE], the inhibition of growth at 10 µM in the assay with IMR-32 was 16%; in the assay with SiHa it was 36%; with HeLa it was 5%; in the assay on COLO 205, 0%; in the assay on A549 it was 25%; with SW-620 it was 13%.
Consider `CC(C)=CCOC(=O)[C@]12CC[C@@H](C)[C@H](C)[C@H]1C1=CC[C@@H]3[C@@]4(C)CC[C@H](O)C(C)(C)[C@@H]4CC[C@@]3(C)[C@]1(C)CC2`, for which the inhibition of growth at 10 µM in the assay with IMR-32 was 19%; with SiHa, 21%; in the assay with HeLa, 24%; in the assay on COLO 205, 0%; in the assay on A549, 12%; with SW-620, 2%.
Regarding `C=CCOC(=O)[C@]12CCC(C)(C)C[C@H]1C1=CC[C@@H]3[C@@]4(C)CC[C@H](O)C(C)(C)[C@@H]4CC[C@@]3(C)[C@]1(C)CC2` [3BETA-HYDROXY-OLEAN-12-EN-28-ALLYLATE], the inhibition of growth at 10 µM is 16% with IMR-32; 15% in the assay on SiHa; 0% in the assay on HeLa; 0% in the assay on COLO 205; 31% with A549; 1% in the assay with SW-620.
As for `COC(=O)COC(=O)[C@]12CC[C@@H](C)[C@H](C)[C@H]1C1=CC[C@@H]3[C@@]4(C)CC[C@H](O)C(C)(C)[C@@H]4CC[C@@]3(C)[C@]1(C)CC2` [3BETA-HYDROXY-URS-12-EN-28-METHYL ACETOACETATE], the inhibition of growth at 10 µM with IMR-32 was found to be 18%; with SiHa, 24%; in the assay on HeLa, 11%; with COLO 205, 0%; in the assay with A549, 23%; in the assay with SW-620, 0%.
As for `CC1(C)CC[C@]2(C(=O)O)CC[C@]3(C)C(=CC[C@@H]4[C@@]5(C)CC[C@H](O)C(C)(C)[C@@H]5CC[C@]43C)[C@@H]2C1` [OLEANOLIC_ACID], the inhibition of growth at 10 µM amounted to 22% in the assay on IMR-32; 3% with SiHa; 26% with HeLa; 33% in the assay on COLO 205; 24% in the assay with A549; 24% in the assay on SW-620.
Consider `C=CCOC(=O)[C@]12CC[C@@H](C)[C@H](C)[C@H]1C1=CC[C@@H]3[C@@]4(C)CC[C@H](O)C(C)(C)[C@@H]4CC[C@@]3(C)[C@]1(C)CC2` [3BETA-HYDROXY-URS-12-EN-28-ALLYLATE], for which the inhibition of growth at 10 µM in the assay with IMR-32 worked out at 20%; with SiHa it was 25%; in the assay on HeLa it was 0%; with COLO 205, 0%; in the assay on A549, 19%; in the assay with SW-620, 0%.
